Calls of active or inactive are those of the source.
Experiments:
[1] = HEK293 cell cytotoxicity, dose response, cytotoxicity control, plate reader, cherry-picked samples (AID 743446); type: functional, cell-based
[2] = MDA-MB-231 cell growth inhibition, dose response, cytotoxicity control for RAD54 inhibitor project, CellTiter-Glo luminescence, cherry-pick (AID 651692); type: functional, cell-based
[3] = MC4R antagonists, dose response, counter-screen for LGR2 antagonist project, cell-based, plate reader, cherry pick (AID 743444); type: functional;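 further: transfected HEK 293 cells stimulated with alpha-MSH peptide; potency of inhibitors of the alpha-MSH evoked signal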
[4] = HepG2 cell cytotoxicity, dose response, cytotoxicity control for Shn3 inhibitor project, CellTiter-Glo, cherry-picked (AID 624134); type: functional, cell-based
[5] = target: Dual specificity protein phosphatase 6 (Rattus norvegicus, UniProt Q64346); test: MKP-3 phosphatase inhibitors, primary screen, biochemical, rat enzyme, in vitro (AID 425)
[6] = HepG2 cell cytotoxicity, dose response, cytotoxicity control, plate reader, cherry-pick, antagonist series (AID 743416); type: functional, cell-based
[7] = target: T1, 1-phosphatidylinositol 4,5-bisphosphate phosphodiesterase gamma-1 (Homo sapiens, UniProt P19174); test: Counterscreen for inhibitors of phospholipase C isozymes (PLC-B3): Fluorescence-based biochemical high throughput dose response assay to identify inhibitors of phospholipase C isozymes (PLC-gamma1).
T1 sequence (P19174 whole entry): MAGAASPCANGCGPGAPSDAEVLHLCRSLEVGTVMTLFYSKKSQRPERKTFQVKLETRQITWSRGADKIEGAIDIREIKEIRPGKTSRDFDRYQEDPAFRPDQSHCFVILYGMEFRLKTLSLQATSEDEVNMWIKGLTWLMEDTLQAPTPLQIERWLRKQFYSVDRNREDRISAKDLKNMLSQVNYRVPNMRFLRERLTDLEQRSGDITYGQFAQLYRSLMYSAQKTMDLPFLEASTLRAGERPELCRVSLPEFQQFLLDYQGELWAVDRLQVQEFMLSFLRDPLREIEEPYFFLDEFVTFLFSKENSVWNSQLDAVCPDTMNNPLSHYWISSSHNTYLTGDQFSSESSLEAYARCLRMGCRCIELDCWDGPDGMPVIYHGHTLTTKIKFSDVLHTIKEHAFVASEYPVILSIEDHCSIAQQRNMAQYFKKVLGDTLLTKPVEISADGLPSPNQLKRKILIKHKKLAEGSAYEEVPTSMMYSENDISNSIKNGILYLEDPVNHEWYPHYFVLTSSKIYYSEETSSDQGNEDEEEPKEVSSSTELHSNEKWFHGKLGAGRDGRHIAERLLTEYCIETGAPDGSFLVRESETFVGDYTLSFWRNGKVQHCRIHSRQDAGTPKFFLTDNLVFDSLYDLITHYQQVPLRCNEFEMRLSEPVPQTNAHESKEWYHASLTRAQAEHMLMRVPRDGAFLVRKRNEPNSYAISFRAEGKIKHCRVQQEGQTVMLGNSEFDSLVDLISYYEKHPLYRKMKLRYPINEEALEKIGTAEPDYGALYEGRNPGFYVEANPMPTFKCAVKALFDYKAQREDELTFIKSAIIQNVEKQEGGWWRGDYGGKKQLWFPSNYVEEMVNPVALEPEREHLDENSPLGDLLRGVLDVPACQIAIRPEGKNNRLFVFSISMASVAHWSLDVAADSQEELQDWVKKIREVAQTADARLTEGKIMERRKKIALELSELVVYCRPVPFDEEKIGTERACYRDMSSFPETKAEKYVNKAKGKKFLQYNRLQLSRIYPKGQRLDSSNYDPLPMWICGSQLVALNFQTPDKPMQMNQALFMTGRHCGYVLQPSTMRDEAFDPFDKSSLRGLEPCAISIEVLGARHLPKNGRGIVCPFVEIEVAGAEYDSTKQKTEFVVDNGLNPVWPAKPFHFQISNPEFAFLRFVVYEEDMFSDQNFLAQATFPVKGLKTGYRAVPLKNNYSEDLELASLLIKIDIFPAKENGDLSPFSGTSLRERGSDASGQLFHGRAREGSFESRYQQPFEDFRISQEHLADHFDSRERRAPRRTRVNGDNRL

cells [8] = type: functional, cell-based
[9] = target: ATP-dependent molecular chaperone HSP82 (Candida albicans (strain WO-1) (Yeast), UniProt C4YTQ8); test: loss of DOC-induced GRE-beta-galactosidase reporter signal, dose response, Hsp90 inhibitor project, S. cerevisiae, luminescence (AID 2400); type: functional, cell-based;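 further: beta-galactosidase luminescence from glucocorticoid response element reporter as proxy for Hsp90 function; inhibitor potency where signal loss means Hsp90 inhibition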
cells [10] = type: functional, cell-based; remark: listed apart in the source
Cytochrome P450 2C19 = Cytochrome P450 2C19 (Homo sapiens, UniProt P33261); test: Cytochrome panel assay with activity outcomes. Panel member name: p450-cyp2c19 Compounds with AC50 equal or less than 10 uM are considered active; type: functional; conditions: read-out: AC50
[11] = target: T2, RNA-binding protein pos-1 (Caenorhabditis elegans, UniProt G5EF15); test: inhibitors of POS-1/mex-3 RNA binding, dose response, biochemical, fluorescence polarization (AID 1964);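 further: purified POS-1 fused to maltose binding protein made in E. coli; potency of compounds blocking POS-1 binding to fluorescent RNA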
T2 sequence (G5EF15 whole entry): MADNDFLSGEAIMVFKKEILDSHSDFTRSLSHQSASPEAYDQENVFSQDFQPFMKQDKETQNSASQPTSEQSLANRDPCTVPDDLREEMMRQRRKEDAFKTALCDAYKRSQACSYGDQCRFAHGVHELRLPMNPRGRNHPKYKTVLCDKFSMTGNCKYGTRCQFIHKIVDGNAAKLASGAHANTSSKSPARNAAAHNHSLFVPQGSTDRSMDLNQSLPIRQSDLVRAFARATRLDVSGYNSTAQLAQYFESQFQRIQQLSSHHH

[12] = target: T3, Small ubiquitin-related modifier 2 (Homo sapiens, UniProt P61956); test: inhibitors of SUMO2 protein-protein interaction, dose response, selectivity assay for SUMO1 interaction inhibitor project, biochemical, FRET, human SUMO2, uHTS hits (AID 624384); type: functional; conditions: read-out: IC50_Mean
[13] = target: T3, Small ubiquitin-related modifier 2; test: SUMO2–SIM peptide binding inhibitors, dose response, selectivity assay for SUMO1 interaction inhibitor project, biochemical, fluorescence polarization, uHTS hits (AID 624385); type: functional; conditions: read-out: IC50_Mean
[14] = target: T4, Zinc finger protein mex-5 (Caenorhabditis elegans, UniProt Q9XUB2); test: MEX-5/TCR-2 RNA interaction inhibitors, dose response, biochemical, C. elegans, fluorescence polarization (AID 1960)
T4 sequence (Q9XUB2 whole entry): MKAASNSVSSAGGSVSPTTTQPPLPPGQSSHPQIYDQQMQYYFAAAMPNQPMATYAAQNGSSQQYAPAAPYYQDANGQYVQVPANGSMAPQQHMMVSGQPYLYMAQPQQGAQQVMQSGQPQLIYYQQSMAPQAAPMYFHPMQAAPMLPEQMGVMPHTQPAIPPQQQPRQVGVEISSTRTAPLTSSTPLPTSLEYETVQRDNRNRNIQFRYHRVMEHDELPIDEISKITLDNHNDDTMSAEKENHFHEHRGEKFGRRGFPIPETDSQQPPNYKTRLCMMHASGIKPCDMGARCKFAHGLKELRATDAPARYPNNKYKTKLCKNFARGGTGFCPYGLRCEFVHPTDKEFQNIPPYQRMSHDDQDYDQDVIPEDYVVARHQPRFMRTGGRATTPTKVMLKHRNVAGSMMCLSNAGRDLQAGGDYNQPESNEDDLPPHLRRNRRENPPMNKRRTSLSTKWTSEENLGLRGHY

T3 sequence (P61956 whole entry): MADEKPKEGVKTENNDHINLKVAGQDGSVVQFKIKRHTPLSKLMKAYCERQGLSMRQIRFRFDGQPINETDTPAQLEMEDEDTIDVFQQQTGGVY
Cytochrome P450 2C19, sequence (P33261 whole entry, the tested form may be a part): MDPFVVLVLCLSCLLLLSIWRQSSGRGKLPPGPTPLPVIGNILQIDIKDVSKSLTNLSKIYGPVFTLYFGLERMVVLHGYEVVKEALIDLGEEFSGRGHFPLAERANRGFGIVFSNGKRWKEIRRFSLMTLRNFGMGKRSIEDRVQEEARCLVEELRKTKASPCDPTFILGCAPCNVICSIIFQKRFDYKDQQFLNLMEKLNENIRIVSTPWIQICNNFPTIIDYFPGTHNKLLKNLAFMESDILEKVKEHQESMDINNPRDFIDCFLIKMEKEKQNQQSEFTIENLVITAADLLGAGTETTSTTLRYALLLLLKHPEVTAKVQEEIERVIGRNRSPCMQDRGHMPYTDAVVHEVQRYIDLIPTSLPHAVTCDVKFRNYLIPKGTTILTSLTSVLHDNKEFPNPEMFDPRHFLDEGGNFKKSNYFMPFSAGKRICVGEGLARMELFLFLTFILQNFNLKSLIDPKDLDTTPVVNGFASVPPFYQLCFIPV
Dual specificity protein phosphatase 6, sequence (Q64346 whole entry): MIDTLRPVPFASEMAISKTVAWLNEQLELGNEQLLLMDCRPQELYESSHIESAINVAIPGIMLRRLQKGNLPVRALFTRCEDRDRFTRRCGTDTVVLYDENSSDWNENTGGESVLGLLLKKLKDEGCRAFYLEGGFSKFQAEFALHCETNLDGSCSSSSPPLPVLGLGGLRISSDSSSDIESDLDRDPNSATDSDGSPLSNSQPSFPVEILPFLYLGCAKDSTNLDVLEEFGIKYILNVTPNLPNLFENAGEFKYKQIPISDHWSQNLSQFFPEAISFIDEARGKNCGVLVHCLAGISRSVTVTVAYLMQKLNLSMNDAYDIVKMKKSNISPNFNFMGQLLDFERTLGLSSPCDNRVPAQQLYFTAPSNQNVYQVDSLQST
ATP-dependent molecular chaperone HSP82, sequence (C4YTQ8 whole entry): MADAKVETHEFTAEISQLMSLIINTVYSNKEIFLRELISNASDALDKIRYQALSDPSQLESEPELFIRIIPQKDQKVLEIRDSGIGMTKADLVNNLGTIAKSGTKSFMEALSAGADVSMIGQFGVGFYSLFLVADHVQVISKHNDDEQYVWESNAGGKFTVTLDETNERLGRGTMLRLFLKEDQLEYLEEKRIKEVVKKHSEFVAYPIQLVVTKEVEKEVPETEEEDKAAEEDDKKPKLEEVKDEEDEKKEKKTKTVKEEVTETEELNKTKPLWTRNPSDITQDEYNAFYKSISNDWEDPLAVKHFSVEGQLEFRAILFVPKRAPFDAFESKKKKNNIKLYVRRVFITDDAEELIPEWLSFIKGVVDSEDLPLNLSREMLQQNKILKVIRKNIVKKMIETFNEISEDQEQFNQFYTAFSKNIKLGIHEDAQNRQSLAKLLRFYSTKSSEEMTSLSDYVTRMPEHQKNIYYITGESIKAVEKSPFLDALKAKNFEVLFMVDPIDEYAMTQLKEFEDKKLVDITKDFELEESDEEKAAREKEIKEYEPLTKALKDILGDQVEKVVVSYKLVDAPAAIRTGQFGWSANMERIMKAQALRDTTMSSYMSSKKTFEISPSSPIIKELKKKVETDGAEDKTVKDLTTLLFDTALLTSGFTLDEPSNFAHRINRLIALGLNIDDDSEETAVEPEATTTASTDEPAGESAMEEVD

Question: For `Cn1nc(-c2ccccn2)nc2c(=O)n(C)c(=O)nc1-2`, which AC50 [1] is on record?
Answer: 21.2 µM (active)

Question: And the AC50 [2]?
Answer: 3.79 µM (active)

Question: What about the AC50 [3] of the same compound?
Answer: 2.73 µM (active)

Question: And the AC50 [4]?
Answer: 5.81 µM (active)

Question: What about the IC50 [5] of the same compound?
Answer: < 1.23 µM (not active)

Question: And the AC50 [6]?
Answer: 2.42 µM (active)

Question: What about the IC50 [7] of the same compound?
Answer: > 4.54 µM (active)

Question: Which EC50 (cells [8]) does the source give for `CCC(=O)NC(c1ccc(OC)cc1)c1cc(Cl)c2cccnc2c1O` (stereo not given) here?
Answer: > 350 µM (not active)

Question: And the EC50 [9]?
Answer: > 160 µM (inactive)

Question: What about the EC50 (cells [10]) of the same compound?
Answer: 19 µM (active)

Question: Which AC50 (Cytochrome P450 2C19) does the source give for `CCCCCCCCCCn1c2c(c(=N)c3c1CCC3)CCC2` here?
Answer: 28.2 µM (inconclusive)

Question: For `COc1ccc(NS(=O)(=O)c2ccc3c(c2)[C@H]2C=CC[C@H]2[C@@H](c2ccc(C(=O)O)cc2)N3)cc1`, which EC50 [11] is on record?
Answer: 14.3 µM (inconclusive)

Question: And the IC50 [12]?
Answer: 5.81 µM (active)

Question: What about the IC50 [13] of the same compound?
Answer: 4.06 µM (active)

Question: And the EC50 [14]?
Answer: 7.88 µM (active)

Source: ChEMBL document CHEMBL1201862, “PubChem BioAssay data set” (2004)
